Assay results: patent US20150306107A1, “SAA Derivative Compound Restores eNOS And Inhibits Oxidative Stress-Induced A Diseases In Hypoxia” (JANSFAT BIOTECHNOLOGY CO., LTD., priority 2014, published 2015)

Experiments:
Type in all cases: cell-based
ROCK II = experiment: Western blotting of ROCK II expression in isolated rat pulmonary artery ring, short-term (acute) hypoxia or normoxia; conditions: for ROCK II expression, Pulmonary Artery Ring: acute hypoxia, Normoxia 100, Hypoxia 560 ± 21
Description: (§1) In our in vitro short-term experiment, isolated rat pulmonary artery was grown under normoxia (20% O2) or hypoxia (1% O2) at 37° C. for 24 hrs as was previously done (Wu BN, et al. Int J Immunopathol Pharmacol 24:925, 2011). The heart weight and body weight ratio (HW/BW) of the rats treated with one of SPAAX-1, SPAAX-1 RX complex, Sildenafil or Sildenafil RX complex each measured on the 21st hypoxic day. All animal care and the experimental protocols of this study were approved by the Animal Care and Use Committee of the Kaohsiung Medical University. Male Wistar rats (200-250 g), provided by the National Laboratory Animal Breeding and Research Center (Taipei, Taiwan), were housed under constant temperature and controlled illumination. Food and water were available ad libitum.
(§2) Whole right lung tissues of hypoxia-treated and untreated rats were isolated and cut into small strips and placed into an extraction buffer (Tris 10 mM, pH 7.0, NaCl 140 mM, PMSF 2 mM, DTT 5 mM, NP-40 0.5%, pepstatin A 0.05 mM and leupeptin 0.2 mM) for protein extraction, and then centrifuged at 12,500 g for 30 min. To measure the expression levels of the proteins, the total proteins were extracted and Western blotting analysis was performed as described previously (Bivalacqua T J, et al., 2013, TJ PLoSONE 8: e68028. doi:10.1371/journal. pone.0068028). Briefly, the protein extract was boiled to a ratio of 4:1 with a sample buffer (Tris 100 mM, pH 6.8, glycerol 20%, SDS 4% and bromophenol blue 0.2%). Electrophoresis was performed using 10% SDS-polyacrylamide gel (2 hr, 100 V, 40 mA, […] protein per lane). Separated proteins were transferred to PVDF membranes treated with 5% fat-free milk powder to block the nonspecific IgGs (90 min, 100 V) and incubated for one hour with a specific protein antibody. The blot was then incubated with anti-mouse or anti-goat IgG linked to alkaline phosphatase (1:1000) for 1 hr. Immunoreactive bands were visualized using horseradish peroxidase-conjugated secondary antibodies and subsequent electrochemiluminescence (ECL) detection (GE Healthcare Bio-Sciences Corp., Piscataway, N.J., U.S.A.). Mouse or rabbit monoclonal antibody of eNOS (Upstate, N.Y., U.S.A.), sGCα (Sigma-Adrich, CA, U.S.A., sGCβ (Santa Cruz, Calif., U.S.A.), PDE-5A (BD Tansduction, San Jose, Calif., U.S.A.), PKG (Calbiochem, San Diego, Calif., U.S.A.) ROCKII (Upstate, N.Y., U.S.A.), RhoA (Santa Cruze, Calif., U.S.A.) and the loading control protein β-actin (Sigma-Adrich, MO, U.S.A.) were used in our Western blot analysis.
(§3) The Western blotting analysis measurements were performed as per lung tissue.

eNOS [1] = experiment: Western blotting of eNOS expression in rat carvenosus strip, acute hypoxia; parameters: unit not given here
VEGF [2] = experiment: Western blotting of VEGF expression in isolated rat pulmonary artery ring, short-term (acute) hypoxia
Description: as §1, §2, §3

VEGF [3] = experiment: Western blotting of VEGF expression in rat carvenosus strip, acute hypoxia; parameters: unit not given here
eNOS [4] = experiment: Western blotting of eNOS expression in isolated rat pulmonary artery ring, short-term (acute) hypoxia or normoxia; conditions: for eNOS expression, Pulmonary Artery Ring: acute hypoxia, Normoxia 100, Hypoxia 65.3 ± 7.8
Description: as §1, §2, §3

[5] = Normoxia 100, Hypoxia 62.4 ± 5.5
[6] = normoxia for 24 hrs, 10 μm, versus non-treated controls

SMILES | ROCK II expression, Pulmonary Artery Ring (ROCK II) | eNOS expression, Carvenosus (eNOS [1]; [5]) | VEGF expression, Carvenosus (VEGF [3]; Normoxia 100, Hypoxia 170 ± 15) | eNOS expression, Pulmonary Artery Ring (eNOS [4]) | further results
CCCCCCCC/C=C\CCCCCCCC(=O)O.COc1ccccc1N1CCN(CCn2cnc3c2c(=O)n(C)c(=O)n3C)CC1 [Example 7, 7-[2-[4-(2-methoxyphenyl)piperazinyl]ethyl]-1,3-dimethylxanthine oleate complex] | 190 ± 7.7 | 122 ± 4.9 | 84 ± 8.8 | 180 ± 7.6 | VEGF expression, Pulmonary Artery Ring (VEGF [2]; Normoxia 100, Hypoxia 175 ± 14): 91 ± 6.5
Cn1c(=O)c2c(ncn2CCN2CCN(c3ccc([N+](=O)[O-])cc3)CC2)n(C)c1=O.O=C1O[C@H]([C@@H](O)CO)C(O)=C1O [Example 8, 7-[2-[4-(4-nitrophenyl)piperazinyl]ethyl]-1,3-dimethyl-xanthine ascorbate complex] | 150 ± 14 | 45 ± 4.2 | 116 ± 12 | 80 ± 3.2 | VEGF expression, Pulmonary Artery Ring (VEGF [2]; Normoxia 100, Hypoxia 175 ± 14): 122 ± 16
CCCc1nn(C)c2c(=O)[nH]c(-c3cc(S(=O)(=O)N4CCN(C)CC4)ccc3OCC)nc12.O=C1OC(C(O)CO)C(O)=C1O [Reagent 1002, Sildenafil DL-ascorbate complex] |  |  |  |  | ROCK II expression, Pulmonary Artery Ring (ROCK II; listed as 1002): 211 ± 12.5; eNOS expression, Carvenosus (eNOS [1]; Normoxia 100, Hypoxia 62.4 ± 5.5, listed as 1002): 125 ± 5.4; VEGF expression, Pulmonary Artery Ring (VEGF [2]; Normoxia 100, Hypoxia 175 ± 14, listed as 1002): 90 ± 5.8; VEGF expression, Carvenosus (VEGF [3]; Normoxia 100, Hypoxia 170 ± 15, listed as 1002): 90 ± 7.9; eNOS expression, Pulmonary Artery Ring (eNOS [4]; listed as 1002): 130 ± 6.4
CCCc1nn(C)c2c(=O)[nH]c(-c3cc(S(=O)(=O)N4CCN(C)CC4)ccc3OCC)nc12.O=C(O)C=CC(=O)O [Reagent 1008, Sildenafil maleate complex] |  | 45 ± 4.2 |  |  | ROCK II expression, Pulmonary Artery Ring (ROCK II; listed as 1008): 150 ± 14; VEGF expression, Carvenosus (VEGF [3]; Normoxia 100, Hypoxia 170 ± 15, listed as 1008): 116 ± 12
CCCc1nn(C)c2c(=O)[nH]c(-c3cc(S(=O)(=O)N4CCN(C)CC4)ccc3OCC)nc12.O=C(O)CC(O)C(=O)O [Reagent 1009, Sildenafil malate complex] | 120 ± 12 |  | 118 ± 18 |  | 
CCCc1nn(C)c2c(=O)[nH]c(-c3cc(S(=O)(=O)N4CCN(C)CC4)ccc3OCC)nc12.O=C(O)C=CC(=O)O [Reagent 1010, Sildenafil fumarate complex] |  |  |  |  | ROCK II expression, Pulmonary Artery Ring (ROCK II; listed as 1010): 125 ± 13; VEGF expression, Carvenosus (VEGF [3]; Normoxia 100, Hypoxia 170 ± 15, listed as 1010): 117 ± 17
CC(O)C(=O)O.CCCc1nn(C)c2c(=O)[nH]c(-c3cc(S(=O)(=O)N4CCN(C)CC4)ccc3OCC)nc12 [Reagent 1011, Sildenafil lactate complex] | 310 ± 21 | 46 ± 4.7 | 118 ± 16 | 75 ± 13 | VEGF expression, Pulmonary Artery Ring (VEGF [2]; Normoxia 100, Hypoxia 175 ± 14): 133 ± 17
CC(=O)O.CCCc1nn(C)c2c(=O)[nH]c(-c3cc(S(=O)(=O)N4CCN(C)CC4)ccc3OCC)nc12 [Reagent 1012, Sildenafil acetate complex] | 270 ± 27 |  |  | 70 ± 13 | 
CCCCCCCCC=CCCCCCCCC(=O)O.CCCc1nn(C)c2c(=O)[nH]c(-c3cc(S(=O)(=O)N4CCN(C)CC4)ccc3OCC)nc12 [Reagent 1013, Sildenafil oleate complex] |  |  |  | 104 ± 18 | 
CCCc1nn(C)c2c(=O)[nH]c(-c3cc(S(=O)(=O)N4CCN(C)CC4)ccc3OCC)nc12.O=C(O)C(=O)O [Reagent 1015, Sildenafil oxalate complex] | 395 ± 27 | 65 ± 4.7 |  | 68 ± 15 | 
C[C@@H](N)[C@H]1CC[C@H](C(=O)Nc2ccncc2)CC1 [Reagent Y27632, Y27632, reference compound] |  |  |  |  | expression of ROCK II in isolated hypoxic pulmonary artery (ROCK II; hypoxia for 24 hrs, versus control level in normoxia, hypoxia 180±10.2%): 150±13.1%; Expression of ROCK II in isolated pulmonary artery ring (ROCK II; [6]): 67.5±14.8%; eNOS in isolated hypoxic pulmonary artery (eNOS [4]; hypoxia for 24 hrs, versus control level in normoxia, hypoxia 60±8.3%): 50±4.7%; expression of eNOS in isolated pulmonary artery ring (eNOS [4]; [6]): 114.1±12.3%
